Where two headings read alike, the source gives them in different places.
Legend:
[1] = Aqueous solubility; assay type: physicochemical; settings: aqueous medium
[2] = Pharmacokinetics (plasma and urine) of ascending multiple oral doses in healthy volunteers; assay type: in vivo, human; settings: for Intra-subject CV % of AUC(0-τ) / Intra-subject CV % of Cmax: ANOVA, data from Days 10 and 14; for Vd/F: read-out: Vz/F; for half-life: read-out: t1/2 (converted); for Cmax: read-out: Cmax; for concentration at 24 h: read-out: Ctrough
Text: Subjects: Forty healthy male and female subjects between the ages of 20 and 50 were enrolled in the study. All subjects were in good health as determined by a medical history, physical examination, 12-lead ECG, serum biochemistry, hematology, urinalysis and virology. Subjects were not permitted to take any prescribed medication within 30 days or non-prescribed medication within 7 days of the first dose administration.
Study Design: This study was a randomized, double-blind, placebo-controlled, ascending-dose trial to evaluate the safety, tolerability and pharmacokinetics (PK) of multiple oral doses of Compound I. Subjects were enrolled into 1 of the 4 cohorts, 10 subjects per cohort (active:placebo=8:2). Subjects received a multiple oral dose of 25, 50, 100, or 200 mg unformulated Compound I in a capsule, or matching placebo, once daily (QD) for 14 days.
Assessments: Safety and tolerability were assessed by adverse event (AE) monitoring, clinical laboratory testing, vital sign measurement, 12-lead ECG measurement, concomitant medication assessment, and physical examination. Blood and urine samples were collected to assess the PK profile of Compound I and the S-cis isomer of Compound I. Blood samples (˜5 mL) for plasma PK analysis were collected in K2-EDTA vacutainer tubes to yield approximately 2 mL of plasma at each of the following time points: (i) Day 1: before dosing, and 0.25, 0.5, 1, 1.5, 2, 2.5, 3, 4, 6, 8, 10, 12, 16, and 24 hours after dosing; (ii) Day 3 to Day 9: before dosing; (iii) Day 10: before dosing, and 0.25, 0.5, 1, 1.5, 2, 2.5, 3, 4, 6, 8, 10, 12, and 16 hours after dosing; (iv) Day 11 to Day 13: before dosing; (v) Day 14: before dosing, and 0.25, 0.5, 1, 1.5, 2, 2.5, 3, 4, 6, 8, 10, 12, 16, 24, 48, 72, 96, 120, 144, and 168 hours after dosing. Urine samples for the PK analysis were collected as a single block at: (i) Day 1: before dosing (spot collection), 0 to 8, 8 to 16, and 16 to 24 hours after dosing; and (ii) Day 14: 0 to 8, 8 to 16, and 16 to 24 hours after dosing. Both plasma and urine concentrations of Compound I and its S-cis isomer were measured using validated liquid chromatography-tandem mass spectrometry (LC/MS/MS).
Data Analysis: Safety data were summarized using descriptive statistics by treatment. PK parameters for Compound I and its S-cis isomer were calculated using non-compartmental analysis using WinNonlin (Version 5.0.1 or greater; Pharsight Corporation, Mountain View, Calif.). Dose proportionality and dose independence were evaluated by visual inspection. Intra-subject variability was assessed using an ANOVA model using data from Days 10 and 14.

[3] = 25 mg QD, Day 1, urine (n = 8), geometric mean
[4] = 25 mg QD, Day 14, plasma (N = 8), geometric mean
[5] = 25 mg QD, Day 14, urine (n = 8), geometric mean
[6] = 50 mg QD, Day 1, urine (n = 8), geometric mean
[7] = 50 mg QD, Day 14, plasma (N = 8), geometric mean
[8] = 50 mg QD, Day 14, urine (n = 8), geometric mean
[9] = 100 mg QD, Day 1, urine (n = 8), geometric mean
[10] = 100 mg QD, Day 14, plasma (N = 8), geometric mean
[11] = 100 mg QD, Day 14, urine (n = 8), geometric mean
[12] = 200 mg QD, Day 1, urine (n = 8), geometric mean
[13] = 200 mg QD, Day 14, plasma (N = 8), geometric mean
[14] = 200 mg QD, Day 14, urine (n = 8), geometric mean
[15] = both sexes, human, oral, 25 mg QD, Day 14, plasma (N = 8), geometric mean
[16] = both sexes, human, oral, 50 mg QD, Day 14, plasma (N = 8), geometric mean
[17] = both sexes, human, oral, 100 mg QD, Day 14, plasma (N = 8), geometric mean
[18] = both sexes, human, oral, 200 mg QD, Day 14, plasma (N = 8), geometric mean
[19] = both sexes, human, plasma, oral, 25 mg, 25 mg QD, Day 1, plasma, healthy subjects (N = 8), geometric mean
[20] = both sexes, human, plasma, oral, 25 mg, 25 mg QD, Day 14, plasma, healthy subjects (N = 8), geometric mean

## O[C@H]1CC[C@H](Nc2ncc3nc(Nc4c(F)cc(F)cc4F)n([C@H]4CCOC4)c3n2)CC1 [Compound I, 4-((9-((3S)-tetrahydro-3-furanyl)-8-((2,4,6-trifluorophenyl)amino)-9H-purin-2-yl)amino)-trans-cyclohexanol]
[1]
  solubility: < 1000 µg/mL
[2]; [3]
  Ae (amount of drug excreted in urine): 1.3 mg
  fe (percentage of dose excreted in urine): 5.2%
[2]; [4]
  CL/F: 95 mL/min
  RA (ratio of accumulation): 1.9
[2]; [5]
  Ae (amount of drug excreted in urine): 3.5 mg
  fe (percentage of dose excreted in urine): 14.0%
[2]; 25 mg QD
  Intra-subject CV % of AUC(0-τ): 7.0%
  Intra-subject CV % of Cmax: 10.2%
[2]; [6]
  Ae (amount of drug excreted in urine): 3.0 mg
  fe (percentage of dose excreted in urine): 5.9%
[2]; [7]
  CL/F: 85 mL/min
  RA (ratio of accumulation): 2.2
[2]; [8]
  Ae (amount of drug excreted in urine): 6.9 mg
  fe (percentage of dose excreted in urine): 13.9%
[2]; 50 mg QD
  Intra-subject CV % of AUC(0-τ): 8.4%
  Intra-subject CV % of Cmax: 5.7%
[2]; [9]
  Ae (amount of drug excreted in urine): 5.3 mg
  fe (percentage of dose excreted in urine): 5.3%
[2]; [10]
  CL/F: 130 mL/min
  RA (ratio of accumulation): 1.8
[2]; [11]
  Ae (amount of drug excreted in urine): 11.9 mg
  fe (percentage of dose excreted in urine): 11.9%
[2]; 100 mg QD
  Intra-subject CV % of AUC(0-τ): 15.7%
  Intra-subject CV % of Cmax: 23.7%
[2]; [12]
  Ae (amount of drug excreted in urine): 5.0 mg
  fe (percentage of dose excreted in urine): 2.5%
[2]; [13]
  CL/F: 146 mL/min
  RA (ratio of accumulation): 1.5
[2]; [14]
  Ae (amount of drug excreted in urine): 11.7 mg
  fe (percentage of dose excreted in urine): 5.8%
[2]; 200 mg QD
  Intra-subject CV % of AUC(0-τ): 14.0%
  Intra-subject CV % of Cmax: 18.3%
[2]; Day 10 and Day 14, QD dosing
  accumulation at steady state: approximately 2 fold
[2]; Days 10 and 14
  intra-subject variability of AUCss,(0-τ): less than 20%
[2]; QD dosing
  steady state reached (trough plasma concentrations): 6 days
[2]; [15]
  Vd/F: 256 L
  half-life: 31 h
[2]; [16]
  Vd/F: 193 L
  half-life: 26 h
[2]; [17]
  Vd/F: 338 L
  half-life: 30 h
[2]; [18]
  Vd/F: 328 L
  half-life: 26 h
[2]; both sexes, human, plasma, oral, 25 mg, 25 mg QD, Day 1, plasma (N = 8), geometric mean
  AUC(0-inf): 4260 ng·h/mL
[2]; [19]
  Cmax: 212 ng/mL
  concentration at 24 h: 55 ng/mL
[2]; both sexes, human, plasma, oral, 25 mg, 25 mg QD, Day 1, plasma, healthy subjects (N = 8), median, read-out: tmax
  Tmax: 2.3 h
[2]; both sexes, human, plasma, oral, 25 mg, 25 mg QD, Day 1, plasma, τ = 24 hours (N = 8), geometric mean, read-out: AUC(0-τ)
  AUC: 2270 ng·h/mL
[2]; both sexes, human, plasma, oral, 25 mg, 25 mg QD, Day 14, plasma (N = 8), geometric mean
  AUC(0-inf): 10200 ng·h/mL
[2]; [20]
  Cmax: 328 ng/mL
  concentration at 24 h: 130 ng/mL

— patent US8603527B2, “Pharmaceutical formulations of a substituted diaminopurine” (Signal Pharmaceuticals, LLC, priority 2010, dated 2013)
